Assays:
[1] = target: T1, CNOT7-FKBP12(F36V) fusion protein (Homo sapiens, UniProt Q9UIV1); experiment: Biochemical gel assay: degradation/deadenylation of RNA substrate with immunoprecipitated CNOT7-FKBP12(F36V); design: key to Activity by gel: +: an activity observed as compared to DMSO control; −: no activity observed as compared to DMSO control; settings: for Activity by gel: Table 8, degradation of RNA, compared to DMSO control
T1 construct: expressed in transfected cells; host or cells: H1299 cells; anti-HA immunoprecipitation, HA-peptide elution
Description: Biochemical reporter systems were generated to evaluate the ability of CNOT7 binding compounds to accelerate the degradation of RNA by CNOT7. […] Generation of the target RNA was described in the previous experiment. […] The bifunctional molecules consist of Compound 1-4 and the following rSM:
which binds to the RNA sequence of AST-X, or the rSM linked to a tag that binds CNOT7-FKBPV. Specifically, the tag is compound AP1867 (CAS NO.: 195514-23-9), a known binder of FKBPV, resulting in the rSM-AP1867tag. The CNOT7-FKBPV is obtained by immunoprecipitation of cell engineered to express CNOT-FKBPV. Specifically, H1299 cells were transfected with plasmid expressing HA-tagged CNOT7-FKBP12(F36V) fusion protein. After 24 hours, cells were pelleted and lysed in the following lysis buffer: 20 mM HEPES pH 7.3, 0.2 mM EGTA, 10% glycerol, 0.1 mM DTT with cOmplete EDTA-free protease inhibitors (Millipore). After freeze-thawing, NaCl was added to a concentration of 400 mM and lysates were pelleted to clear cellular debris. Cleared lysate was adjusted to buffer conditions containing 0.1% NP-40 and 150 mM NaCl before being applied to Pierce Anti-HA magnetic beads (ThermoFisher) at 4° C. for 2-20 hours with end-over-end rotation. After washing, bound protein was competitively eluted with 2 mg/mL HA peptide (ThermoFisher) in activity assay buffer at 4° C. for 2-20 hours. It should be appreciated that this immunoprecipitation protocol will result in tagged CNOT7 that will likely have other components of the CCR4-NOT complex bound as well.
The reactions were incubated at 37° C., with specified timepoints removed from the reaction and combined with 2× formamide RNA loading buffer with 10 mM EDTA before boiling for 3 minutes to quench the reaction. Samples were run on a pre-warmed 15% TBE-Urea polyacrylamide gel at 180V for 90 minutes and then imaged using Cy2 settings on the Azure Biosystems 600 Imaging System. […] It should be noted that the CCR4-NOT complex includes proteins other than CNOT7, for instance CNOT6, that have deadenylation and/or exonuclease activity.
These findings were confirmed in the biochemical assay described above. […] In contrast, literature compounds that are active site binders, compounds A, B and C, structure depicted on the right-hand side, do interfere with the ability of CNOT7 to degrade RNA (See center panel of gel).
Heterobifunctional molecules were generated by conjugating the rSM depicted above, which binds RNA with an AST-X sequence, to AP1867 (a small molecule binder of FKBP12(F36V)), resulting in rSM-AP1867tag. In addition, I-243 was conjugated to the rSM resulting in compounds 1-329 and I-371, depicted in FIG. 17. Fluorescently labeled RNA substrates were refolded in the presence of Mg^2+ and incubated 10, 25, or 50 μM doses of heterobifunctional molecules for 30 minutes at room temperature before the enzymatic reaction was initiated with the elution fraction (containing CNOT7-FKBP12(F36V) fusion protein) from the immunoprecipitation protocol above. The reactions were incubated at 37° C., with specified timepoints removed from the reaction and combined with 2× formamide RNA loading buffer with 10 mM EDTA before boiling for 3 minutes to quench the reaction. Samples were run on a pre-warmed 15% TBE-Urea polyacrylamide gel at 180V for 120 minutes and then imaged using Cy2 settings on the Azure Biosystems 600 Imaging System (See FIGS. 18, 19A and 19B). In addition, for 1-371 and the control rSM-AP1867tag, the disappearance of the full-length substrate band was quantified using ImageJ and plotted over time (FIG. 19B).

CNOT7 = target: T2, CNOT7 (Homo sapiens, UniProt Q9UIV1); experiment: Binding of compounds to CNOT7 by surface plasmon resonance (SPR)
T2 construct: biotin (biotinylated); purchased Ichor Life Sciences
Description: Surface plasmon resonance (SPR) was used to evaluate the binding of compounds to CNOT7. Experiments were performed on a Biacore 8K (Cytiva) with a running buffer consisting of 20 mM HEPES pH7.5, 100 mM KCl, 3 mM MgCl2, 1 mM TCEP, 0.05% tween-20, 2% DMSO. Briefly, biotinylated CNOT7 (Ichor Life Sciences) at a concentration of 70 μg/ml was immobilized to a streptavidin coated chip (Cytiva sensor chip SA) for 1200 sec at a flow rate of 5 μl/min (typical immobilization level 7,500 RU). For compound binding experiments, various concentrations of analyte were flowed over the chip with 120 sec association phase, 120 sec dissociation phase, at a flow rate of 30 ul/min and collection rate of 10 Hz. Reference channel subtraction and solvent correction were applied to all sensograms prior to data analysis. Sensograms were fit to 1:1 steady state affinity model. FIGS. 3 and 4 show the binding of exemplary compounds and the AMP control (a known CNOT7 active site binder) at various concentrations to CNOT7.

[2] = dissociation constant by SPR, Table 7

T2 sequence (Q9UIV1 whole entry): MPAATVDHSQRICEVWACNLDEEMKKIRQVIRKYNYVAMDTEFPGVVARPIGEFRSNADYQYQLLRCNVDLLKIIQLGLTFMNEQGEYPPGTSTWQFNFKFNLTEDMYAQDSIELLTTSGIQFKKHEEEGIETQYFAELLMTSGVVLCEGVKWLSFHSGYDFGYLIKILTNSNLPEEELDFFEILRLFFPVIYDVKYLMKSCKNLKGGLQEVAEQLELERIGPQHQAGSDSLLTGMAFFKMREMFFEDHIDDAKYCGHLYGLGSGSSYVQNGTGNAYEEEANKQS
T1 sequence (Q9UIV1 with tags, fused parts or gaps): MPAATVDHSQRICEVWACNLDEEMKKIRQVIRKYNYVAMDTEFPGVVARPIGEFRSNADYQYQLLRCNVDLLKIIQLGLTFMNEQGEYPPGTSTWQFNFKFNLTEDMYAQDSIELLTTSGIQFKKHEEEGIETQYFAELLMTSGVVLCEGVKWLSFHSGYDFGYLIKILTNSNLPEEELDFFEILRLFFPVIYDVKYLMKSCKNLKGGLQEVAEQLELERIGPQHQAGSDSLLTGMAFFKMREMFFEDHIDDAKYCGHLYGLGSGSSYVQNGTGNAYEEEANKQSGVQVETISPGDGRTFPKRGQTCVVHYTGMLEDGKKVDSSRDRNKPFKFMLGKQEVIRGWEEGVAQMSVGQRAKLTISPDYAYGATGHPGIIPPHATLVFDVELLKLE

Structure (SMILES)	Activity by gel [1]	relative potency in biochemical assay ([1]; bait conjugated to rSM (Example 17, FIG. 18))	Kd (CNOT7; Table 6, dissociation constant for CNOT7 by SPR) [µM]	Kd (CNOT7; [2]) [µM]
COc1ccc(C(C)NC(=O)C(COCCOCCOCCc2cn(COc3ccc(NC(=O)Nc4nc(CC(=O)N5CCN(C)CC5)cs4)cc3)nn2)Sc2nc(=O)[nH]cc2C)c(F)c1 (centres unmarked) [Compound I-329]	−	more potent	1 to 25	1 to 25
COc1ccc2c(c1)C[C@@H](COCCOCCOCCOCc1cn(CCOc3ccc(NC(=O)Nc4nc(CC(=O)N5CCN(C)CC5)cs4)cc3)nn1)N(C(=O)CSc1nc(=O)[nH]cc1C)C2 [Compound I-338]	−			> 25
COc1ccc2c(c1)C[C@H](COCCOCCOCCOCc1cn(CCOc3ccc(NC(=O)Nc4nc(CC(=O)N5CCN(C)CC5)cs4)cc3)nn1)N(C(=O)CSc1nc(=O)[nH]cc1C)C2 [Compound I-339]	+			> 25
COc1ccc([C@@H](C)NC(=O)[C@@H](COCCOCCOCc2cn(CCOc3ccc(NC(=O)Nc4nc(CC(=O)N5CCN(C)CC5)cs4)cc3)nn2)Sc2nc(=O)[nH]cc2Cl)c(F)c1 [Compound I-372]	+			1 to 25
COc1ccc([C@@H](C)NC(=O)[C@H](COCCOCCOCc2cn(CCOc3ccc(NC(=O)Nc4nc(CC(=O)N5CCN(C)CC5)cs4)cc3)nn2)Sc2nc(=O)[nH]cc2Cl)c(F)c1 [Compound I-373]	+			> 25
COc1ccc(C(C)NC(=O)C(CCOCCOCCOCCn2cc(CCc3ccc(NC(=O)Nc4nc(CC(=O)N5CCN(C)CC5)cs4)cc3)nn2)Sc2nc(=O)[nH]cc2C)c(F)c1 (centres unmarked) [Compound I-382]	+			
COc1ccc(C(C)NC(=O)C(CCOCCOCCOCCn2cc(COCCOCCOc3ccc(NC(=O)Nc4nc(CC(=O)N5CCN(C)CC5)cs4)cc3)nn2)Sc2nc(=O)[nH]cc2Cl)c(F)c1 (centres unmarked) [Compound I-395]	+ (weak)			1 to 25
COc1ccc([C@@H](C)NC(=O)[C@H](CCOCCOCCOCCn2cc(COCCOCCOCCOCCOc3ccc(NC(=O)Nc4nc(CC(=O)N5CCN(C)CC5)cs4)cc3)nn2)Sc2nc(=O)[nH]cc2Cl)c(F)c1 [Compound I-398]	−			
COc1ccc2c(c1)CC(COCCOCCOCCOCc1cn(CCOc3ccc(NC(=O)Nc4nc(CC(=O)N5CCN(C)CC5)cs4)cc3)nn1)N(C(=O)CSc1nc(=O)[nH]cc1C)C2 (centres unmarked) [Compound I-451]	−			> 25
COc1ccc(CNC(=O)[C@H](COCCOCCOCCn2cc(COCCOCCOc3ccc(NC(=O)Nc4nc(CC(=O)N5CCN(C)CC5)cs4)cc3)nn2)Sc2nc(=O)[nH]cc2C)cc1 [Compound I-469]	−			1 to 25
COc1ccc(CNC(=O)[C@@H](COCCOCCOCCn2cc(COCCOCCOc3ccc(NC(=O)Nc4nc(CC(=O)N5CCN(C)CC5)cs4)cc3)nn2)Sc2nc(=O)[nH]cc2C)c(F)c1 [Compound I-473]	−			1 to 25
COc1ccc(CNC(=O)[C@H](COCCOCCOCCn2cc(COCCOCCOc3ccc(NC(=O)Nc4nc(CC(=O)N5CCN(C)CC5)cs4)cc3)nn2)Sc2nc(=O)[nH]cc2C)c(F)c1 [Compound I-474]	−			1 to 25
COc1ccc(CNC(=O)[C@@H](COCCOCCOCCn2cc(COCCOCCOCCOCCOc3ccc(NC(=O)Nc4nc(CC(=O)N5CCN(C)CC5)cs4)cc3)nn2)Sc2nc(=O)[nH]cc2C)cc1 [Compound I-475]	−			1 to 25
COc1ccc(CNC(=O)[C@H](COCCOCCOCCn2cc(COCCOCCOCCOCCOc3ccc(NC(=O)Nc4nc(CC(=O)N5CCN(C)CC5)cs4)cc3)nn2)Sc2nc(=O)[nH]cc2C)cc1 [Compound I-476]	−			1 to 25
COc1ccc(CNC(=O)[C@H](COCCOCCOCCn2cc(COCCOCCOCCOCCOc3ccc(NC(=O)Nc4nc(CC(=O)N5CCN(C)CC5)cs4)cc3)nn2)Sc2nc(=O)[nH]cc2C)c(F)c1 [Compound I-478]	+			1 to 25
COc1ccc2c(c1)C[C@@H](COCCOCCOCCOCCn1cc(COCCOCCOc3ccc(NC(=O)Nc4nc(CC(=O)N5CCN(C)CC5)cs4)cc3)nn1)C(C(=O)CSc1nc(=O)[nH]cc1C)C2 (some centres unmarked) [Compound I-495]	−			> 25
COc1ccc2c(c1)C[C@@H](COCCOCCOCCOCCn1cc(COCCOCCOCCOCCOc3ccc(NC(=O)Nc4nc(CC(=O)N5CCN(C)CC5)cs4)cc3)nn1)N(C(=O)CSc1nc(=O)[nH]cc1C)C2 [Compound I-497]	+ (weak)			> 25
COc1ccc([C@@H](C)NC(=O)[C@H](CCC(=O)N(C)Cc2cn(CCOc3ccc(NC(=O)Nc4nc(CC(=O)N5CCN(C)CC5)cs4)cc3)nn2)Sc2nc(=O)[nH]cc2C)c(F)c1 [Compound I-505]	−			
COc1ccc([C@@H](C)NC(=O)[C@@H](CCC(=O)N(C)Cc2cn(CCOc3ccc(NC(=O)Nc4nc(CC(=O)N5CCN(C)CC5)cs4)cc3)nn2)Sc2nc(=O)[nH]cc2C)c(F)c1 [Compound I-506]	−			
COc1ccc(C(C)NC(=O)C(CCC(=O)N(C)c2cccc(OCCOc3ccc(NC(=O)Nc4nc(CC(=O)N5CCN(C)CC5)cs4)cc3)c2)Sc2nc(=O)[nH]cc2C)c(F)c1 (centres unmarked) [Compound I-515]	−			
Cc1c[nH]c(=O)nc1SCC(=O)NCc1ccc(OCCOCCOCCOCCn2cc(COc3ccc(NC(=O)Nc4nc(CC(=O)N5CCN(C)CC5)cs4)cc3)nn2)cc1 [Compound I-533]	−			
